Data taken from ChEMBL document CHEMBL5108024, “New C-6 functionalized quinoline NorA inhibitors strongly synergize with ciprofloxacin against planktonic and biofilm growing resistant Staphylococcus aureus strains” (Eur J Med Chem, 2022).
In brackets after ≈: the same amount, converted by molar mass. Several values for one entry are separate records, joined by “and”; a condition that tells them apart may be missing. Equal entries are not always repeated.

Tests used:
Staphylococcus aureus [1] = test: Inhibition of EtBr efflux in ciprofloxacin-resistant Staphylococcus aureus 1199B overexpressing norA and harboring A116E grlA mutant assessed as reduction in fluorescence intensity at 50 uM measured for 5 mins by microplate reader analysis relative to control; format: functional
Staphylococcus aureus [2] = test: Inhibition of EtBr efflux in ciprofloxacin-resistant Staphylococcus aureus 1199B overexpressing norA and harboring A116E grlA mutant assessed as reduction in fluorescence intensity at 10 uM measured for 5 mins by microplate reader analysis relative to control; format: functional
Staphylococcus aureus [3] = test: Antibacterial activity against ciprofloxacin-resistant Staphylococcus aureus 1199B overexpressing norA and harboring A116E grlA mutant assessed as inhibition of bacterial growth by broth microdilution method; format: functional
[4] = Cytotoxicity against human THP-1 cells assessed as cell viability at 12.5 ug/ml incubated for 24 hrs by MTT assay relative to control; format: toxicity, cell-based; settings: at 12.5 µg/mL, read-out: Activity
Staphylococcus aureus [5] = test: Synergistic antibacterial activity against Staphylococcus aureus K2378 overexpressing norA assessed as fold reduction in ciprofloxacin MIC at 0.2 to 12.5 ug/ml by checkerboard assay; format: functional; settings: dose 0.2-12.5 µg/ml
[6] = Cytotoxicity against human A549 cells assessed as cell viability at 3.13 ug/ml incubated for 24 hrs by MTT assay relative to control; format: toxicity, cell-based; settings: at 3.13 µg/mL, read-out: Activity
Staphylococcus aureus [7] = test: Antibacterial activity against Staphylococcus aureus K2378 harbouring norA promoting and coding region assessed as inhibition of bacterial growth by broth microdilution method; format: functional
Staphylococcus aureus [8] = test: Synergistic antibiofilm activity against wild type Staphylococcus aureus 1199 assessed as biofilm eradication by measuring fold reduction in ciprofloxacin MBEC at 3.13 ug/ml incubated for 24 hrs by Calgary biofilm device assay; format: functional; settings: dose 3.13 µg/ml
[9] = Cytotoxicity against human THP-1 cells assessed as cell viability incubated for 24 hrs by MTT assay; format: toxicity, cell-based
Staphylococcus aureus [10] = test: Synergistic antibiofilm activity against wild type Staphylococcus aureus 1199 assessed as biofilm eradication by measuring ciprofloxacin MBEC at 3.13 ug/ml incubated for 24 hrs by Calgary biofilm device assay; format: functional; settings: dose 3.13 µg/ml
Staphylococcus aureus [11] = test: Synergistic antibiofilm activity against Staphylococcus aureus 1199B overexpressing norA and harboring A116E grlA mutant assessed as biofilm eradication by measuring ciprofloxacin MBEC at 3.13 ug/ml incubated for 24 hrs by Calgary biofilm device assay; format: functional; settings: dose 3.13 µg/ml
Staphylococcus aureus [12] = test: Antibacterial activity against ciprofloxacin-susceptible wild type Staphylococcus aureus 1199 assessed as inhibition of bacterial growth by broth microdilution method; format: functional
Staphylococcus aureus [13] = test: Synergistic antibacterial activity against Staphylococcus aureus 1199B overexpressing norA and harboring A116E grlA mutant assessed as eight fold minimum potentiating concentration incubated in presence of ciprofloxacin by checkerboard assay; format: functional
Staphylococcus aureus [14] = test: Antibacterial activity against norA deleted Staphylococcus aureus K1902 assessed as inhibition of bacterial growth by broth microdilution method; format: functional
Staphylococcus aureus [15] = test: Synergistic antibiofilm activity against Staphylococcus aureus 1199B overexpressing norA and harboring A116E grlA mutant assessed as biofilm eradication by measuring fold reduction in ciprofloxacin MBEC at 3.13 ug/ml incubated for 24 hrs by Calgary biofilm device assay; format: functional; settings: dose 3.13 µg/ml
[16] = Cytotoxicity against human THP-1 cells assessed as cell viability at 3.13 ug/ml incubated for 24 hrs by MTT assay relative to control; format: toxicity, cell-based; settings: at 3.13 µg/mL, read-out: Activity
Staphylococcus aureus [17] = test: Synergistic antibacterial activity against ciprofloxacin-resistant Staphylococcus aureus 1199B overexpressing norA and harboring A116E grlA mutant assessed as fold reduction in ciprofloxacin MIC at 6.25 uM by broth microdilution method; format: functional
[18] = Cytotoxicity against human A549 cells assessed as cell viability at 12.5 ug/ml incubated for 24 hrs by MTT assay relative to control; format: toxicity, cell-based; settings: at 12.5 µg/mL, read-out: Activity
Staphylococcus aureus [19] = test: Synergistic antibacterial activity against Staphylococcus aureus 1199B overexpressing norA and harboring A116E grlA mutant assessed as four fold minimum potentiating concentration incubated in presence of ciprofloxacin by checkerboard assay; format: functional
Staphylococcus aureus [20] = test: Synergistic antibacterial activity against Staphylococcus aureus 1199B overexpressing norA and harboring A116E grlA mutant assessed as fold reduction in ciprofloxacin MIC at 0.2 to 0.39 ug/ml by checkerboard assay; format: functional; settings: dose 0.2-0.39 µg/ml

CCCOc1ccc(-c2cc(OCCN3CCCCCC3)c3cc(Oc4ccccc4)ccc3n2)cc1
inhibition (Staphylococcus aureus [1]): 83%
inhibition (Staphylococcus aureus [2]): 66.8%
MIC (Staphylococcus aureus [3]): > 503 µM

CCCOc1ccc(-c2cc(OCCN3CCCCC3)c3cc(NCc4ccccc4)ccc3n2)cc1
inhibition (Staphylococcus aureus [1]): 40.6%

CCCOc1ccc(-c2cc(OCCN(CC)CC)c3cc(OC(F)(F)F)ccc3n2)cc1
inhibition (Staphylococcus aureus [1]): 83%
inhibition (Staphylococcus aureus [2]): 69.2%
MIC (Staphylococcus aureus [3]): > 541 µM

CCCOc1ccc(-c2cc(OCCN3CCCCCC3)c3cc(C#N)ccc3n2)cc1
inhibition (Staphylococcus aureus [1]): 84.2%
inhibition (Staphylococcus aureus [2]): 86.8%
MIC (Staphylococcus aureus [3]): > 582 µM

CCCOc1ccc(-c2cc(OCCN(CC)CC)c3cc(OC(F)F)ccc3n2)cc1
inhibition (Staphylococcus aureus [1]): 71.9%

CCCOc1ccc(-c2cc(OCCN3CCCCCC3)c3cc(C(F)(F)F)ccc3n2)cc1
inhibition (Staphylococcus aureus [1]): 85.7%
viability at 24 h, 12.5 ug/ml [4]: 27%
fold change (FC) (Staphylococcus aureus [5]): 4
viability at 24 h, 3.13 ug/ml [6]: 100%
inhibition (Staphylococcus aureus [2]): 65.6%
MIC (Staphylococcus aureus [7]): > 50 µg/mL
fold change (FC) (Staphylococcus aureus [8]): 286
CC50 at 24 h [9]: > 3.13 µg/mL
MBEC (Staphylococcus aureus [10]): 0.07 µg/mL
MBEC (Staphylococcus aureus [11]): 0.63 µg/mL
MIC (Staphylococcus aureus [12]): > 50 µg/mL
MPC (Staphylococcus aureus [13]): 1.56 µg/mL
MIC (Staphylococcus aureus [14]): > 50 µg/mL
fold change (FC) (Staphylococcus aureus [15]): 512
viability at 24 h, 3.13 ug/ml [16]: 65.4%
fold change (FC) (Staphylococcus aureus [17]): >=8
viability at 24 h, 12.5 ug/ml [18]: 77.1%
MIC (Staphylococcus aureus [3]): > 50 µg/mL and > 529 µM

CCCOc1ccc(-c2cc(OCCN3CCCCC3)c3cc(OC)ccc3n2)cc1
inhibition (Staphylococcus aureus [1]): 97.6%
MPC (Staphylococcus aureus [19]): 0.78 µg/mL
fold change (FC) (Staphylococcus aureus [8]): 286
MBEC (Staphylococcus aureus [10]): 0.07 µg/mL
MBEC (Staphylococcus aureus [11]): 2.5 µg/mL
MPC (Staphylococcus aureus [13]): 1.56 µg/mL
fold change (FC) (Staphylococcus aureus [20]): 2
MIC (Staphylococcus aureus [3]): 238 µM (≈ 100 µg/mL)

CCCOc1ccc(-c2cc(OCCN3CCCCCC3)c3cc(Br)ccc3n2)cc1
inhibition (Staphylococcus aureus [1]): 76.4%

CCCOc1ccc(-c2cc(OCCN3CCCCC3)c3cc(Oc4ccccc4)ccc3n2)cc1
inhibition (Staphylococcus aureus [1]): 84.1%
viability at 24 h, 12.5 ug/ml [4]: 21.8%
fold change (FC) (Staphylococcus aureus [5]): 4
viability at 24 h, 3.13 ug/ml [6]: 100%
inhibition (Staphylococcus aureus [2]): 65.6%
MIC (Staphylococcus aureus [7]): > 50 µg/mL
fold change (FC) (Staphylococcus aureus [8]): 286
CC50 at 24 h [9]: > 3.13 µg/mL
MBEC (Staphylococcus aureus [10]): 0.07 µg/mL
MBEC (Staphylococcus aureus [11]): 1.25 µg/mL
MIC (Staphylococcus aureus [12]): > 50 µg/mL
MPC (Staphylococcus aureus [13]): 1.56 µg/mL
MIC (Staphylococcus aureus [14]): > 50 µg/mL
fold change (FC) (Staphylococcus aureus [15]): 512
viability at 24 h, 3.13 ug/ml [16]: 87.9%
fold change (FC) (Staphylococcus aureus [17]): 8
viability at 24 h, 12.5 ug/ml [18]: 100%
MIC (Staphylococcus aureus [3]): > 50 µg/mL and > 518 µM

CCCOc1ccc(-c2cc(OCCN3CCCCC3)c3cc(C(F)(F)F)ccc3n2)cc1
inhibition (Staphylococcus aureus [1]): 87.4%
inhibition (Staphylococcus aureus [2]): 70.1%
MBEC (Staphylococcus aureus [10]): 0.07 µg/mL
MBEC (Staphylococcus aureus [11]): >50 µg/mL
MIC (Staphylococcus aureus [12]): > 50 µg/mL
MPC (Staphylococcus aureus [13]): 3.13 µg/mL
fold change (FC) (Staphylococcus aureus [17]): 8
MIC (Staphylococcus aureus [3]): > 50 µg/mL and > 545 µM

CCCOc1ccc(-c2cc(OCCN3CCCCC3)c3cc(OC(C)C)ccc3n2)cc1
inhibition (Staphylococcus aureus [1]): 65.3%

CCCOc1ccc(-c2cc(OCCN3CCCCCC3)c3cc(OC(C)C)ccc3n2)cc1
inhibition (Staphylococcus aureus [1]): 75.3%

CCCOc1ccc(-c2cc(OCCN(CC)CC)c3cc(C(F)(F)F)ccc3n2)cc1
inhibition (Staphylococcus aureus [1]): 73.5%

CCCOc1ccc(-c2cc(OCCN(CC)CC)c3cc(OC(C)C)ccc3n2)cc1
inhibition (Staphylococcus aureus [1]): 43.7%

CCCOc1ccc(-c2cc(OCCN3CCCCC3)c3cc(-c4ccccc4)ccc3n2)cc1
inhibition (Staphylococcus aureus [1]): 80.6%
inhibition (Staphylococcus aureus [2]): 41.9%
